This note sets out measurements from patent US20250163074A1, “CDK Inhibitors And Their Use As Pharmaceuticals” (Prelude Therapeutics Incorporated, priority 2020, published 2025).

One experiment has as its target CDK6/Cyclin D1 (Homo sapiens (Human), UniProt Q00534). The experiment in a line: CDK6/CyclinD1 enzymatic activity assay (TR-FRET). It counts as biochemical. To be noted: CDK6/Cyclin D1 1 nM, ATP 250 μM, read-out: CDK6_D1 IC50. As to the method:
CDK6/CyclinD1 Enzymatic Activity Assay
(§1) The inhibitory activity of compounds was evaluated in vitro using TR-FRET assay with white 384-well low volume microplate (Greiner Bio-One). CDK6/Cyclin D1 catalyzed phosphorylation of peptide in the presence and absence of compounds was measured and used in IC50 determination. Recombinant protein complex CDK6/Cyclin D1, expressed from insect cell, was purchased from ProQinase. Testing compounds were dissolved in DMSO at 0.1 mM and tested in 9-dose IC50 mode. The reaction mixture was prepared by mixing CDK6/Cyclin D1 (1 nM final), ULight-4E-BP1 (100 nM final, Perkinelmer, TRF0128-D), and ATP (250 μM final) in assay buffer (20 mM of HEPES pH 7.4, 1 mM of EGTA, 0.05% BSA, 0.005% Tween 20, and 1 mM TCEP). The compound of interest in DMSO was added to each well in 3-fold serial dilution by dispenser (TECAN D300E). After 20 minutes preincubation at room temperature, 0.1 μL MgCl2 (10 mM final) was added to initiate the reaction. Following a 60 minutes incubation at 37° C., the reaction was stopped by addition of 2 μL of quenching buffer consisting of Lance detection buffer (Perkinelmer CR97-100C), 2 nM LANCE Ultra Europium-anti-P-4E-BP1 (Perkinelmer, TRF0216-D), 10 mM EDTA, and incubate at room temperature for additional 60 minutes in dark. The reaction signal was measured by Envision multimode plate reader (PerkinElmer, 2102-0010). IC50 values were determined by fitting the data to the standard 4 parameters with Hill Slope using GraphPad Prism software.
Background: Time-resolved FRET reads energy transfer from a long-lived donor to a nearby acceptor.

Experiment [1] concerns MCF7 adenocarcinoma cell line. As to the kind of experiment: Cell proliferation studies in MCF7 cells (ATP-Lite). To be noted: 10 days incubation, cell viability by ATP-Lite luminescence, read-out: PROLIFERATION_CTG_MCF7 IC50. It counts as cell-based. As to the method:
Cell Proliferation Studies in MCF7 Cells
Cell proliferation studies were conducted in MCF7 adenocarcinoma cell line. Cells were maintained in DMEM (Corning, Catalog #: 10-013-CV) supplemented with 10% v/v FBS (Gibco, Catalog #: 26140-079), 1% v/v Penicillin Streptomycin (Gibco, Catalog #15140-122) Cells were seeded in 384-well plates at a density of 100 or 200 cells/well. Compounds dissolved in DMSO were plated in quadruplicate using a digital dispenser (D300E, Tecan) and tested on a 9-point 3-fold serial dilution. Cells were incubated for 10 days in a 37° C. active humidified incubator at 5% CO2. A media exchange and second compound addition were performed on day 5. Cell viability was measured using the ATP-Lite 1-Step Luminescence reagent (Perkin Elmer, Catalog #: 6016731) as per manufacturer's instructions. Luminescence signal was measured with a multimode plate reader (Envision 2105, Perkin Elmer). Raw data files were imported to Dotmatics Screening Ultra for IC50 analysis. Luminescence values were normalized to both background and DMSO controls to obtain a percentage of viable cells relative to DMSO vehicle control.

The next experiment has as its target CDK4/Cyclin D1 (Homo sapiens (Human), UniProt P11802). The experiment in a line: CDK4/CyclinD1 enzymatic activity assay (TR-FRET). Particulars: CDK4/CyclinD1 1 nM, ATP 2 mM, read-out: CDK4_D1 IC50. The class given is biochemical. As to the method: CDK4/CyclinD1 Enzymatic Activity Assay
as §1, with “Bio-One). CDK4/Cyclin” for “Bio-One). CDK6/Cyclin”, “was measured.” for “was measured and used in”, “complex CDK4/Cyclin” for “complex CDK6/Cyclin”, “mixing CDK4/CyclinD1” for “mixing CDK6/Cyclin D1”, “ATP (2 mM” for “ATP (250 μM”, “temperature,” for “temperature, 0.1 μL”

pIC50: −log10 of the molar value. Like-named read-outs stand apart in the source and are kept apart here.

CDK4/Cyclin D1, sequence (P11802 whole entry): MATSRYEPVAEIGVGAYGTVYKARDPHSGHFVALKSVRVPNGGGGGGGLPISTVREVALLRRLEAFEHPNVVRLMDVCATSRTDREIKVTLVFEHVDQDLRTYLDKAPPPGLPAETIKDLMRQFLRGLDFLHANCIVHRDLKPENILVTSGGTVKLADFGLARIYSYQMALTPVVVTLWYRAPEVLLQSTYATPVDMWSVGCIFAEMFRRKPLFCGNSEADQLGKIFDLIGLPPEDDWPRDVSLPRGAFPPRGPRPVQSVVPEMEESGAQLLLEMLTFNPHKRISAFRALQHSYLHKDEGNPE
CDK4/Cyclin D1, sequence (P24385 whole entry partner): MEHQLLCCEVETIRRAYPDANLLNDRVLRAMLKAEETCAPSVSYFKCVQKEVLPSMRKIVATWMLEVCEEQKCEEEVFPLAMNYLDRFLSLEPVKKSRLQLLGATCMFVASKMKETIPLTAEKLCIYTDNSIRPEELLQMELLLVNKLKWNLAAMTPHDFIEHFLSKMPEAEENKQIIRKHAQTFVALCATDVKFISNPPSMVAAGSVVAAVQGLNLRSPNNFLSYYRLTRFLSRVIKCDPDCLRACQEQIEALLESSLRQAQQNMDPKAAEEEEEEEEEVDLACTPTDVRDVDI
CDK6/Cyclin D1, sequence (Q00534 whole entry): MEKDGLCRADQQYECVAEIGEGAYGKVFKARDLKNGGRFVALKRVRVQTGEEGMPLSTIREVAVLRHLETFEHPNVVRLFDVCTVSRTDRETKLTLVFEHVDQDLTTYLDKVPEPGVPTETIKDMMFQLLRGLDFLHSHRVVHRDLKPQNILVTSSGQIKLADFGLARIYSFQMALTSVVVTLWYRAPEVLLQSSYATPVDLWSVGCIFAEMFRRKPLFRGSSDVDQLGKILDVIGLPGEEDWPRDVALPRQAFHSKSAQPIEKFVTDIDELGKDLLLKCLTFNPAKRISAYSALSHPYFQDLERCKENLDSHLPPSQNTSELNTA
CDK6/Cyclin D1, sequence (P24385 whole entry partner): as the sequence (P24385 whole entry partner) above

As to `CN1CCC(c2ccc(Nc3ncc(F)c(-c4cc5c(s4)C4(CCCCC4)CN(C)C5=O)n3)nc2)CC1` [Example 5, 2′-(5-Fluoro-2-((5-(1-methylpiperidin-4-yl)pyridin-2-yl)amino)pyrimidin-4-yl)-5′-methyl-5′,6′-dihydro-4′H-spiro[cyclohexane-1,7′-thieno[3,2-c]pyridin]-4′-one], the pIC50 on CDK6/Cyclin D1 was 6.70 to 7.70; in experiment [1] (Homo sapiens, 240 h), no less than 7.70; on CDK4/Cyclin D1 it was no less than 7.70.

`CN1CCC(c2ccc(Nc3ncc(F)c(-c4cc5c(s4)C4(CC4)N(C)C5=O)n3)nc2)CC1` [Example 8]: the pIC50 on CDK6/Cyclin D1 is no less than 7.70; in experiment [1], 6.70 to 7.70; on CDK4/Cyclin D1 it was no less than 7.70.

On to `CN1CCC(c2ccc(Nc3ncc(F)c(-c4sc5c(c4Cl)C(=O)N(C)C54CC4)n3)nc2)CC1` [Example 9, 3′-chloro-2′-(5-Fluoro-2-((5-(1-methylpiperidin-4-yl)pyridin-2-yl)amino)pyrimidin-4-yl)-5′-methylspiro[cyclopropane-1,6′-thieno[2,3-c]pyrrol]-4′(5′H)-one], for which the pIC50 is no less than 7.70 at CDK6/Cyclin D1; 6.70 to 7.70 in experiment [1] (Homo sapiens, 240 h); no less than 7.70 at CDK4/Cyclin D1.

For the compound `CN1CCC(c2ccc(Nc3ncc(F)c(-c4sc5c(c4C(F)(F)F)C(=O)N(C)C54CC4)n3)nc2)CC1` [Example 10, 2′-(5-Fluoro-2-((5-(1-methyl-piperidin-4-yl)pyridin-2-yl)amino)pyrimidin-4-yl)-5′-methyl-3′-(trifluoromethyl)spiro[cyclopropane-1,6′-thieno[2,3-c]pyrrol]-4′(5′H)-one], the pIC50 on CDK6/Cyclin D1 is no less than 7.70; in experiment [1] (Homo sapiens, 240 h), 6.70 to 7.70; on CDK4/Cyclin D1 it was no less than 7.70.

As to `CCN1CCN(Cc2ccc(Nc3ncc(F)c(-c4sc5c(c4C)C(=O)N(C)C54CC4)n3)nc2)CC1` [Example 13, 2′-(2-((5-((4-Ethylpiperazin-1-yl)methyl)pyridin-2-yl)amino)-5-fluoropyrimidin-4-yl)-3′,5′-dimethylspiro[cyclopropane-1,6′-thieno[2,3-c]pyrrol]-4′(5′H)-one], the pIC50 was no less than 7.70 at CDK6/Cyclin D1; 6.70 to 7.70 in experiment [1] (Homo sapiens, 240 h); no less than 7.70 on CDK4/Cyclin D1.

For the compound `CCN1CC2(C1)CN(c1ccc(Nc3ncc(F)c(-c4cc5c(s4)C4(CCCC4)N(CC)C5=O)n3)nc1)C2` [Example 21, 5′-Ethyl-2′-(2-((5-(6-ethyl-2,6-diazaspiro[3.3]heptan-2-yl)pyridin-2-yl)amino)-5-fluoropyrimidin-4-yl)spiro[cyclopentane-1,6′-thieno[2,3-c]pyrrol]-4′(5′H)-one], the pIC50 is no less than 7.70 at CDK6/Cyclin D1; 6.70 to 7.70 in experiment [1] (Homo sapiens, 240 h); no less than 7.70 at CDK4/Cyclin D1.

For `CCN1C(=O)c2cc(-c3nc(Nc4ccc(C5CCN(C)CC5)cn4)ncc3F)sc2C12CCCC2` [Example 22, 5′-Ethyl-2′-(5-fluoro-2-((5-(1-methylpiperidin-4-yl)pyridin-2-yl)amino)pyrimidin-4-yl)spiro[cyclopentane-1,6′-thieno[2,3-c]pyrrol]-4′(5′H)-one], the pIC50 at CDK6/Cyclin D1 was 6.70 to 7.70; in experiment [1] (Homo sapiens, 240 h), 6.70 to 7.70; at CDK4/Cyclin D1, no less than 7.70.

For the compound `CCN1CCC(c2ccc(Nc3ncc(F)c(-c4cc5c(s4)C4(CCCC4)N(C)C5=O)n3)nc2)CC1` [Example 23, 2′-(2-((5-(1-Ethylpiperidin-4-yl)pyridin-2-yl)amino)-5-fluoropyrimidin-4-yl)-5′-methylspiro[cyclopentane-1,6′-thieno[2,3-c]pyrrol]-4′(5′H)-one], the pIC50 is no less than 7.70 at CDK6/Cyclin D1; 6.70 to 7.70 in experiment [1] (Homo sapiens, 240 h); no less than 7.70 on CDK4/Cyclin D1.

With `CN1CCC(c2ccc(Nc3ncc(F)c(-c4sc5c(c4C(F)(F)F)C(=O)N(C)C54CCCC4)n3)nc2)CC1` [Example 26, 2′-(5-Fluoro-2-((5-(1-methylpiperidin-4-yl)pyridin-2-yl)amino)pyrimidin-4-yl)-5′-methyl-3′-(trifluoromethyl)spiro[cyclopentane-1,6′-thieno[2,3-c]pyrrol]-4′(5′H)-one], the pIC50 was no less than 7.70 at CDK6/Cyclin D1; no less than 7.70 in experiment [1] (Homo sapiens, 240 h); no less than 7.70 on CDK4/Cyclin D1.

For `CN1CCC(c2ccc(Nc3ncc(F)c(-c4sc5c(c4Cl)C(=O)N(C)C54CCCC4)n3)nc2)CC1` [Example 27, 3′-Chloro-2′-(5-fluoro-2-((5-(1-methylpiperidin-4-yl)pyridin-2-yl)amino)pyrimidin-4-yl)-5′-methylspiro[cyclopentane-1,6′-thieno[2,3-c]pyrrol]-4′(5′H)-one], the pIC50 on CDK6/Cyclin D1 was no less than 7.70; in experiment [1] (Homo sapiens, 240 h) it was no less than 7.70; on CDK4/Cyclin D1, no less than 7.70.

With `Cc1c(-c2nc(Nc3ccc(C4CCCN(C)C4)cn3)ncc2F)sc2c1C(=O)N(C)CC21CC1` (stereo not drawn) [Example 30, 2′-(5-Fluoro-2-((5-(1-methyl-piperidin-3-yl)pyridin-2-yl)amino)pyrimidin-4-yl)-3′,5′-dimethyl-5′,6′-dihydro-4′H-spiro[cyclopropane-1,7′-thieno[3,2-c]pyridin]-4′-one], the pIC50 at CDK6/Cyclin D1 was no less than 7.70; in experiment [1] (Homo sapiens, 240 h), 6.70 to 7.70; at CDK4/Cyclin D1 it was no less than 7.70.

On to `Cc1c(-c2nc(Nc3ccc(C4CCN(C5CCOC5)CC4)cn3)ncc2F)sc2c1C(=O)N(C)CC21CC1` (stereo not drawn) [Example 32, 2′-(5-Fluoro-2-((5-(1-(tetrahydrofuran-3-yl)piperidin-4-yl)pyridin-2-yl)amino)pyrimidin-4-yl)-3′,5′-dimethyl-5′,6′-dihydro-4′H-spiro[cyclopropane-1,7′-thieno[3,2-c]pyridin]-4′-one], for which the pIC50 at CDK6/Cyclin D1 is no less than 7.70; in experiment [1] (Homo sapiens, 240 h) it was 6.70 to 7.70; at CDK4/Cyclin D1, no less than 7.70.

Consider `CCN1CCC12CN(c1ccc(Nc3ncc(F)c(-c4cc5c(s4)C4(CCC4)CN(C)C5=O)n3)nc1)C2` [Example 51, 2′-(2-((5-(1-Ethyl-1,6-diazaspiro[3.3]heptan-6-yl)pyridin-2-yl)amino)-5-fluoropyrimidin-4-yl)-5′-methyl-5′,6′-dihydro-4′H-spiro[cyclobutane-1,7′-thieno[3,2-c]pyridin]-4′-one], for which the pIC50 is 6.70 to 7.70 in experiment [1] (Homo sapiens, 240 h) and no less than 7.70 on CDK4/Cyclin D1.

With `CN1CC2(CCCC2)c2sc(-c3nc(Nc4ccc(N5CCN6CCC5CC6)cn4)ncc3F)cc2C1=O` [Example 64, 2-[2-[[5-(1,4-Diazabicyclo[3.2.2]nonan-4-yl)pyridin-2-yl]amino]-5-fluoropyrimidin-4-yl]-5-methylspiro[6H-thieno[3,2-c]pyridine-7,1′-cyclopentane]-4-one], the pIC50 in experiment [1] (Homo sapiens, 240 h) is 6.70 to 7.70; on CDK4/Cyclin D1, no less than 7.70.

Regarding `Cc1c(-c2nc(Nc3ccc(C4CCN(C(C)C)CC4)nn3)ncc2F)sc2c1C(=O)N(C)CC21CC1` [Example 83, 2′-(5-Fluoro-2-((6-(1-isopropylpiperidin-4-yl)pyridazin-3-yl)amino)pyrimidin-4-yl)-3′,5′-dimethyl-5′,6′-dihydro-4′H-spiro[cyclopropane-1,7′-thieno[3,2-c]pyridin]-4′-one], the pIC50 in experiment [1] (Homo sapiens, 240 h) was 6.70 to 7.70; at CDK4/Cyclin D1, no less than 7.70.
